# PubChem BioAssay AID1963974 (Molecular Pharmacology Branch, DTP, NCI, 2024)
# pIC50: −log10 of the molar value.
# Test system: 648629-189-R-J1-PDC spheroids with HUVEC/MSC, viability
# Test: Anticancer human tumor 648629-189-R-J1-PDC patient-derived bladder carcinoma cell line growth inhibition [PI3K]
# Conditions: for pIC50: curve of first compound; for viability, T/C: stronger effect = lower value
# Outline: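 Viability of mixed-cell spheroids was determined after exposure to pairwise combinations, one partner being inavolisib, alpelisib, duvelisib or copanlisib. Highest tested concentration matched clinical Cmax where known and 10 microM where not, descending in half-log steps.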
# [1] = second compound 0.0316 µM, first compound 0.0316 µM
# [2] = second compound 0.0316 µM, first compound 0.1 µM
# [3] = second compound 0.0316 µM, first compound 0.316 µM
# [4] = second compound 0.0316 µM, first compound 1 µM
# [5] = second compound 0.0316 µM, first compound 3.16 µM
# [6] = second compound 0.0316 µM, first compound 10 µM
# [7] = second compound 0.1 µM, first compound 0.0316 µM
# [8] = second compound 0.1 µM, first compound 0.1 µM
# [9] = second compound 0.1 µM, first compound 0.316 µM
# [10] = second compound 0.1 µM, first compound 1 µM
# [11] = second compound 0.1 µM, first compound 3.16 µM
# [12] = second compound 0.1 µM, first compound 10 µM
# [13] = second compound 0.316 µM, first compound 0.0316 µM
# [14] = second compound 0.316 µM, first compound 0.1 µM
# [15] = second compound 0.316 µM, first compound 0.316 µM
# [16] = second compound 0.316 µM, first compound 1 µM
# [17] = second compound 0.316 µM, first compound 3.16 µM
# [18] = second compound 0.316 µM, first compound 10 µM
# [19] = second compound 1 µM, first compound 0.0316 µM
# [20] = second compound 1 µM, first compound 0.1 µM
# [21] = second compound 1 µM, first compound 0.316 µM
# [22] = second compound 1 µM, first compound 1 µM
# [23] = second compound 1 µM, first compound 3.16 µM
# [24] = second compound 1 µM, first compound 10 µM
# [25] = second compound 3.16 µM, first compound 0.0316 µM
# [26] = second compound 3.16 µM, first compound 0.1 µM
# [27] = second compound 10 µM, first compound 0.0316 µM
# [28] = second compound 10 µM, first compound 0.1 µM
# 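Note: spheroids exposed to agents for seven days before reading.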
# 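Throughout, for viability, T/C: percent of vehicle control luminescence where 100% = DMSO treated spheroids.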
structure (smiles),measurement,setting,value
Cn1nccc1Nc1nccc(-c2ccn(C(CO)c3ccc(Cl)c(F)c3)c(=O)c2)n1 (stereo unspecified) + CC(Nc1ccc2c(c1)OCCn1cc(N3C(=O)OCC3C(F)F)nc1-2)C(N)=O,pIC50,second compound 0.00316 µM,< 5.00
same,pIC50,second compound 0.01 µM,< 5.00
same,pIC50,second compound 0.0316 µM,< 5.00
same,pIC50,second compound 0.1 µM,< 5.00
same,pIC50,second compound 0.316 µM,< 5.00
same,pIC50,second compound 1 µM,< 5.00
same,"viability, T/C","second compound 0.00316 µM, first compound 0.0316 µM",103%
same,"viability, T/C","second compound 0.00316 µM, first compound 0.1 µM",105%
same,"viability, T/C","second compound 0.00316 µM, first compound 0.316 µM",111%
same,"viability, T/C","second compound 0.00316 µM, first compound 1 µM",109%
same,"viability, T/C","second compound 0.00316 µM, first compound 3.16 µM",109%
same,"viability, T/C","second compound 0.00316 µM, first compound 10 µM",79.3%
same,"viability, T/C","second compound 0.01 µM, first compound 0.0316 µM",111%
same,"viability, T/C","second compound 0.01 µM, first compound 0.1 µM",93%
same,"viability, T/C","second compound 0.01 µM, first compound 0.316 µM",102%
same,"viability, T/C","second compound 0.01 µM, first compound 1 µM",108%
same,"viability, T/C","second compound 0.01 µM, first compound 3.16 µM",105%
same,"viability, T/C","second compound 0.01 µM, first compound 10 µM",81.2%
same,"viability, T/C",[1],107%
same,"viability, T/C",[2],101%
same,"viability, T/C",[3],97.4%
same,"viability, T/C",[4],103%
same,"viability, T/C",[5],106%
same,"viability, T/C",[6],79.1%
same,"viability, T/C",[7],97.2%
same,"viability, T/C",[8],97.5%
same,"viability, T/C",[9],84.9%
same,"viability, T/C",[10],103%
same,"viability, T/C",[11],85.1%
same,"viability, T/C",[12],73%
same,"viability, T/C",[13],82.1%
same,"viability, T/C",[14],86%
same,"viability, T/C",[15],82.7%
same,"viability, T/C",[16],99.8%
same,"viability, T/C",[17],78.3%
same,"viability, T/C",[18],68.8%
same,"viability, T/C",[19],66.2%
same,"viability, T/C",[20],67%
same,"viability, T/C",[21],70.3%
same,"viability, T/C",[22],76.3%
same,"viability, T/C",[23],73%
same,"viability, T/C",[24],62.3%
CC(=O)c1c(C)c2cnc(Nc3ccc(N4CCNCC4)cn3)nc2n(C2CCCC2)c1=O + CC(Nc1ncnc2nc[nH]c12)c1cc2cccc(Cl)c2c(=O)n1-c1ccccc1,pIC50,second compound 0.0316 µM,< 7.00
same,pIC50,second compound 0.1 µM,< 7.00
same,pIC50,second compound 0.316 µM,< 7.00
same,pIC50,second compound 1 µM,< 7.00
same,pIC50,second compound 3.16 µM,< 7.00
same,pIC50,second compound 10 µM,< 7.00
same,"viability, T/C","second compound 0.0316 µM, first compound 0.000316 µM",102%
same,"viability, T/C","second compound 0.0316 µM, first compound 0.001 µM",104%
same,"viability, T/C","second compound 0.0316 µM, first compound 0.00316 µM",101%
same,"viability, T/C","second compound 0.0316 µM, first compound 0.01 µM",92.1%
same,"viability, T/C",[1],111%
same,"viability, T/C",[2],102%
same,"viability, T/C","second compound 0.1 µM, first compound 0.000316 µM",102%
same,"viability, T/C","second compound 0.1 µM, first compound 0.001 µM",99.2%
same,"viability, T/C","second compound 0.1 µM, first compound 0.00316 µM",98.5%
same,"viability, T/C","second compound 0.1 µM, first compound 0.01 µM",90.9%
same,"viability, T/C",[7],117%
same,"viability, T/C",[8],116%
same,"viability, T/C","second compound 0.316 µM, first compound 0.000316 µM",93.1%
same,"viability, T/C","second compound 0.316 µM, first compound 0.001 µM",103%
same,"viability, T/C","second compound 0.316 µM, first compound 0.00316 µM",107%
same,"viability, T/C","second compound 0.316 µM, first compound 0.01 µM",107%
same,"viability, T/C",[13],111%
same,"viability, T/C",[14],97.9%
same,"viability, T/C","second compound 1 µM, first compound 0.000316 µM",100%
same,"viability, T/C","second compound 1 µM, first compound 0.001 µM",97.4%
same,"viability, T/C","second compound 1 µM, first compound 0.00316 µM",109%
same,"viability, T/C","second compound 1 µM, first compound 0.01 µM",102%
same,"viability, T/C",[19],112%
same,"viability, T/C",[20],98.9%
same,"viability, T/C","second compound 3.16 µM, first compound 0.000316 µM",90.8%
same,"viability, T/C","second compound 3.16 µM, first compound 0.001 µM",108%
same,"viability, T/C","second compound 3.16 µM, first compound 0.00316 µM",91.9%
same,"viability, T/C","second compound 3.16 µM, first compound 0.01 µM",113%
same,"viability, T/C",[25],101%
same,"viability, T/C",[26],107%
same,"viability, T/C","second compound 10 µM, first compound 0.000316 µM",90.3%
same,"viability, T/C","second compound 10 µM, first compound 0.001 µM",92.2%
same,"viability, T/C","second compound 10 µM, first compound 0.00316 µM",95.3%
same,"viability, T/C","second compound 10 µM, first compound 0.01 µM",88.7%
same,"viability, T/C",[27],89.3%
same,"viability, T/C",[28],94.3%
C=CC(=O)N1CCN(c2nc(=O)n(-c3c(C)ccnc3C(C)C)c3nc(-c4c(O)cccc4F)c(F)cc23)C(C)C1 (stereo unspecified) + CC(Nc1ncnc2nc[nH]c12)c1cc2cccc(Cl)c2c(=O)n1-c1ccccc1,pIC50,second compound 0.0316 µM,< 5.00
same,pIC50,second compound 0.1 µM,< 5.00
same,pIC50,second compound 0.316 µM,< 5.00
same,pIC50,second compound 1 µM,< 5.00
same,pIC50,second compound 3.16 µM,< 5.00
same,pIC50,second compound 10 µM,< 5.00
same,"viability, T/C",[1],106%
same,"viability, T/C",[2],95.3%
same,"viability, T/C",[3],107%
same,"viability, T/C",[4],109%
same,"viability, T/C",[5],103%
same,"viability, T/C",[6],96.9%
same,"viability, T/C",[7],102%
same,"viability, T/C",[8],101%
same,"viability, T/C",[9],125%
same,"viability, T/C",[10],104%
same,"viability, T/C",[11],108%
same,"viability, T/C",[12],87.5%
same,"viability, T/C",[13],95.4%
same,"viability, T/C",[14],115%
same,"viability, T/C",[15],112%
same,"viability, T/C",[16],103%
same,"viability, T/C",[17],112%
same,"viability, T/C",[18],103%
same,"viability, T/C",[19],120%
same,"viability, T/C",[20],99.3%
same,"viability, T/C",[21],107%
same,"viability, T/C",[22],107%
same,"viability, T/C",[23],101%
same,"viability, T/C",[24],92.1%
same,"viability, T/C",[25],103%
same,"viability, T/C",[26],92.1%
same,"viability, T/C","second compound 3.16 µM, first compound 0.316 µM",104%
same,"viability, T/C","second compound 3.16 µM, first compound 1 µM",101%
same,"viability, T/C","second compound 3.16 µM, first compound 3.16 µM",106%
same,"viability, T/C","second compound 3.16 µM, first compound 10 µM",98.8%
same,"viability, T/C",[27],94.2%
same,"viability, T/C",[28],86.9%
same,"viability, T/C","second compound 10 µM, first compound 0.316 µM",96.4%
same,"viability, T/C","second compound 10 µM, first compound 1 µM",95.6%
same,"viability, T/C","second compound 10 µM, first compound 3.16 µM",89.8%
same,"viability, T/C","second compound 10 µM, first compound 10 µM",88.3%
